test: recombinant barcode read abundance after kanamycin selection (control-corrected) (log10(CPM+1)); higher = more efficient recombination; sequences stand for … in AGTGCAGAGAAAATCGGCCAGTTTTCTCTGCCTGCAGTCCGCATGCCGT…AGATTTATGCAGCGGACTGCCTTTCTCCCAAAGTGATAAACCGGACAGTATCATGGACCGGTTTTCCCGGTAATCCGTATTTGCAAGGTTGGTTTCACT; site = the 11-nt target
Procedure, shortened: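 Recombination efficiency comes from barcode counts at recombinant junctions, converted to counts per million, averaged and corrected against the control. Values appear as log10(CPM+1). They were obtained from a pooled E. coli screen in which each oligo paired a target with an IS621 bridge RNA target-binding loop, and cells were plated in duplicate on chloramphenicol/ampicillin LB agar or on chloramphenicol/ampicillin/kanamycin with 0.1 mM IPTG.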
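Note: IS621 recombinase and bridge RNA in Escherichia coli cells.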

Sequence	recombinant barcode read abundance (log10)
ATGTCTCCTTGGGTTCTAACCTGTTGCCT (site CTGTCTCCTAG)	0.0833
ATGTCTCCTTGGGTTCTAACCTGTTGCCT (site GTGTCTCCTAG)	0.0531
ATGTCTCCTTGGGTTCTAACCTGTTGCCT (site TTGTCTCCTAG)	0.228
ATTAATCCTTGGGTTCTAACCTGTTGCCT (site ATTAAATCTAG)	0.441
ATTAATCCTTGGGTTCTAACCTGTTGCCT (site ATTAATCCTAG)	0.0839
ATTACTACTTGGGTTCTAACCTGTTGCCT (site AATACTACTAG)	0.124
ATTACTACTTGGGTTCTAACCTGTTGCCT (site ACTACTACTAG)	0.0886
ATTACTACTTGGGTTCTAACCTGTTGCCT (site AGTACTACTAG)	0.343
ATTACTACTTGGGTTCTAACCTGTTGCCT (site ATTACTACTAG)	0.411
ATTAGGGCTTGGGTTCTAACCTGTTGCCG (site ATTAGGGCTCG)	0.413
ATTAGGGCTTGGGTTCTAACCTGTTGCCG (site ATTGGGGCTCT)	0.192
ATTCAAACTTGGGTTCTAACCTGTTGCCT (site ATTCAAACTAG)	0.788
ATTCAAACTTGGGTTCTAACCTGTTGCCT (site GTTCAAACTAT)	0.088
ATTCGGGCTTGGGTTCTAACCTGTTGCGT (site ATTCGAGCTGC)	0.0603
ATTCGGGCTTGGGTTCTAACCTGTTGCGT (site ATTCGGGCTAC)	2.07
ATTGGGTCTTGGGTTCTAACCTGTTGCCT (site ATTGGATCTAG)	0.445
ATTGGGTCTTGGGTTCTAACCTGTTGCCT (site ATTGGCTCTAG)	0.0688
ATTGGGTCTTGGGTTCTAACCTGTTGCCT (site ATTGGGTCTAG)	0.818
ATTGGGTCTTGGGTTCTAACCTGTTGCCT (site ATTGGTTCTAG)	0.102
ATTTAACCTTGGGTTCTAACCTGTTGCGT (site ATTTAACCTAC)	2.11
ATTTAACCTTGGGTTCTAACCTGTTGCGT (site GGGGTGTCTCG)	0.0805
ATTTCGACTTGGGTTCTAACCTGTTGCCT (site AATTCGACTAG)	0.0716

Sequence	recombinant barcode read abundance (log10)
ATTTCGACTTGGGTTCTAACCTGTTGCCT (site ACTTCGACTAG)	0.044
ATTTCGACTTGGGTTCTAACCTGTTGCCT (site AGTTCGACTAG)	0.142
ATTTCGACTTGGGTTCTAACCTGTTGCCT (site ATTTCGACTAG)	0.16
CAAACATCTTGGGTTCTAACCTGTTGCCT (site CAAACAACTAG)	0.129
CAAACATCTTGGGTTCTAACCTGTTGCCT (site CAAACACCTAG)	0.0425
CAAACATCTTGGGTTCTAACCTGTTGCCT (site CAAACAGCTAG)	0.0169
CAAACATCTTGGGTTCTAACCTGTTGCCT (site CAAACATCTAG)	0.162
CAAACTACTTGGGTTCTAACCTGTTGCCA (site CAAACTACTTG)	0.0171
CAAACTACTTGGGTTCTAACCTGTTGCCA (site TTGCGGCCTCT)	0.078
CAAAGAGCTTGGGTTCTAACCTGTTGCTG (site CAAAGAGCTCA)	1.38
CAAAGAGCTTGGGTTCTAACCTGTTGCTG (site GTCCAGCCTGT)	0.0339
CAAAGTCCTTGGGTTCTAACCTGTTGCAT (site CAAAGTCCTAA)	0.191
CAAAGTCCTTGGGTTCTAACCTGTTGCAT (site CAAAGTCCTAC)	0.0225
CAAAGTCCTTGGGTTCTAACCTGTTGCAT (site CAAAGTCCTAG)	0.59
CAAAGTCCTTGGGTTCTAACCTGTTGCAT (site CAAAGTCCTAT)	1.46
CAAAGTCCTTGGGTTCTAACCTGTTGCGT (site CAAAGTCCTAA)	0.128
CAAAGTCCTTGGGTTCTAACCTGTTGCGT (site CAAAGTCCTAC)	2.24
CAAAGTCCTTGGGTTCTAACCTGTTGCGT (site CAAAGTCCTAG)	0.294
CAAAGTCCTTGGGTTCTAACCTGTTGCGT (site CAAAGTCCTAT)	0.932
CAAATTACTTGGGTTCTAACCTGTTGCCT (site CAAATTACTAG)	0.0574
CAAATTACTTGGGTTCTAACCTGTTGCCT (site CAGATGACTAG)	0.161
CAACCTTCTTGGGTTCTAACCTGTTGCCT (site CAACCTTCTAG)	0.7

Sequence	recombinant barcode read abundance (log10)
CAACCTTCTTGGGTTCTAACCTGTTGCCT (site CTACCTTCTAG)	0.025
CAAGACCCTTGGGTTCTAACCTGTTGCCT (site CAAGACCCTAG)	2.5
CAAGACCCTTGGGTTCTAACCTGTTGCCT (site CACGACCCTAG)	0.763
CAAGACCCTTGGGTTCTAACCTGTTGCCT (site CAGGACCCTAG)	1.05
CAAGACCCTTGGGTTCTAACCTGTTGCCT (site CATGACCCTAG)	1.17
CAAGAGTCTTGGGTTCTAACCTGTTGCTT (site CAAGAGTCTAA)	2.26
CAAGAGTCTTGGGTTCTAACCTGTTGCTT (site CGAGAGACTAA)	0.178
CAAGGGACTTGGGTTCTAACCTGTTGCGG (site CAAGGGACTCC)	2.33
CAAGGGACTTGGGTTCTAACCTGTTGCGG (site CAGGGGACTCG)	0.0306
CAAGTCCCTTGGGTTCTAACCTGTTGCCT (site AAAGTCCCTAG)	0.0441
CAAGTCCCTTGGGTTCTAACCTGTTGCCT (site CAAGTCCCTAG)	1.9
CAAGTCCCTTGGGTTCTAACCTGTTGCCT (site GAAGTCCCTAG)	0.207
CAAGTCCCTTGGGTTCTAACCTGTTGCCT (site TAAGTCCCTAG)	0.211
CAAGTCGCTTGGGTTCTAACCTGTTGCCT (site CAAGTAGCTAG)	0.219
CAAGTCGCTTGGGTTCTAACCTGTTGCCT (site CAAGTCGCTAG)	1.29
CAAGTCGCTTGGGTTCTAACCTGTTGCCT (site CAAGTGGCTAG)	0.458
CAAGTCGCTTGGGTTCTAACCTGTTGCCT (site CAAGTTGCTAG)	0.0227
CAATCCTCTTGGGTTCTAACCTGTTGCCT (site AAATCCTCTAG)	0.0785
CAATCCTCTTGGGTTCTAACCTGTTGCCT (site CAATCCTCTAG)	1.2
CAATCCTCTTGGGTTCTAACCTGTTGCCT (site GAATCCTCTAG)	0.0242
CAATCCTCTTGGGTTCTAACCTGTTGCCT (site TAATCCTCTAG)	0.127
CAATCCTCTTGGGTTCTAACCTGTTGCTA (site CAATCCTCTTA)	0.443

Sequence	recombinant barcode read abundance (log10)
CAATCCTCTTGGGTTCTAACCTGTTGCTA (site TCTGTAACTAG)	0.0981
CAATGGCCTTGGGTTCTAACCTGTTGCCT (site CAAAGGCCTAG)	0.126
CAATGGCCTTGGGTTCTAACCTGTTGCCT (site CAACGGCCTAG)	0.253
CAATGGCCTTGGGTTCTAACCTGTTGCCT (site CAAGGGCCTAG)	0.27
CAATGGCCTTGGGTTCTAACCTGTTGCCT (site CAATGGCCTAG)	0.571
CACAAAGCTTGGGTTCTAACCTGTTGCCT (site CACAAAGCTAG)	0.84
CACAAAGCTTGGGTTCTAACCTGTTGCCT (site CACACAGCTAG)	0.143
CACAACACTTGGGTTCTAACCTGTTGCCT (site CACAACACTAG)	1.84
CACAACACTTGGGTTCTAACCTGTTGCCT (site CACACCACTAG)	0.287
CACAACACTTGGGTTCTAACCTGTTGCCT (site CACAGCACTAG)	0.0135
CACAACACTTGGGTTCTAACCTGTTGCCT (site CACATCACTAG)	0.0296
CACAAGTCTTGGGTTCTAACCTGTTGCGT (site CACAAGTCTAC)	1.38
CACAAGTCTTGGGTTCTAACCTGTTGCGT (site CACCAGTCTCC)	0.0392
CACACCACTTGGGTTCTAACCTGTTGCCT (site CACAACACTAG)	0.243
CACACCACTTGGGTTCTAACCTGTTGCCT (site CACACCACTAG)	0.698
CACACCACTTGGGTTCTAACCTGTTGCCT (site CACAGCACTAG)	0.211
CACACCACTTGGGTTCTAACCTGTTGCCT (site CACATCACTAG)	0.108
CACACCGCTTGGGTTCTAACCTGTTGCCT (site CACACCGCTAG)	1.62
CACACCGCTTGGGTTCTAACCTGTTGCCT (site CACACGGCTAG)	0.0403
CACACTCCTTGGGTTCTAACCTGTTGCAG (site CACACTCCTCT)	0.498

— the supplement of paper PMC11208160
